Measurements: PubChem BioAssay AID1259407 (Chemical Carcinogenesis Research Information System (CCRIS), 2018)
Calls of active or inactive are those of the source. How the calls were made is not given here.

Tested on: CCRIS mutagenicity, Ames/micronucleus/aberration tests
Experiment: CCRIS mutagenicity studies

CC(=O)Oc1ccccc1C(=O)O
mutagenic call (End Point: IN VITRO MICRONUCLEUS, Test System: CHL/IU CELLS, Metabolic Activation: NONE): active; positive
mutagenic call (End Point: IN VITRO MICRONUCLEUS, Test System: RAT KIDNEY FIBROBLAST NRK-49F, Metabolic Activation: NONE): inactive; negative
mutagenic call (Test System: AMES SALMONELLA TYPHIMURIUM, Strain/Indicator: TA97, Metabolic Activation: HAMSTER, LIVER, S-9, AROCLOR 1254 (10%), Method: PREINCUBATION): inactive; negative
mutagenic call (Test System: AMES SALMONELLA TYPHIMURIUM, Strain/Indicator: TA97, Metabolic Activation: HAMSTER, LIVER, S-9, AROCLOR 1254 (30%), Method: PREINCUBATION): inactive; negative
mutagenic call (Test System: AMES SALMONELLA TYPHIMURIUM, Strain/Indicator: TA97, Metabolic Activation: NONE, Method: PREINCUBATION): inactive; negative
mutagenic call (Test System: AMES SALMONELLA TYPHIMURIUM, Strain/Indicator: TA97, Metabolic Activation: RAT, LIVER, S-9, AROCLOR 1254 (10%), Method: PREINCUBATION): inactive; negative
mutagenic call (Test System: AMES SALMONELLA TYPHIMURIUM, Strain/Indicator: TA97, Metabolic Activation: RAT, LIVER, S-9, AROCLOR 1254 (30%), Method: PREINCUBATION): inactive; negative
mutagenic call (Test System: AMES SALMONELLA TYPHIMURIUM, Strain/Indicator: TA98, Metabolic Activation: GUINEA PIG, LIVER, S-9, PCB, Method: PREINCUBATION): inactive; negative
mutagenic call (Test System: AMES SALMONELLA TYPHIMURIUM, Strain/Indicator: TA98, Metabolic Activation: HAMSTER, LIVER, S-9, AROCLOR 1254 (10%), Method: PREINCUBATION): inactive; negative
mutagenic call (Test System: AMES SALMONELLA TYPHIMURIUM, Strain/Indicator: TA98, Metabolic Activation: HAMSTER, LIVER, S-9, AROCLOR 1254 (30%), Method: PREINCUBATION): inactive; negative
mutagenic call (Test System: AMES SALMONELLA TYPHIMURIUM, Strain/Indicator: TA98, Metabolic Activation: HAMSTER, LIVER, S-9, AROCLOR 1254, Method: STANDARD PLATE): inactive; negative
mutagenic call (Test System: AMES SALMONELLA TYPHIMURIUM, Strain/Indicator: TA98, Metabolic Activation: HAMSTER, LIVER, S-9, PCB, Method: PREINCUBATION): inactive; negative
mutagenic call (Test System: AMES SALMONELLA TYPHIMURIUM, Strain/Indicator: TA98, Metabolic Activation: MOUSE, LIVER, S-9, AROCLOR 1254, Method: STANDARD PLATE): inactive; negative
mutagenic call (Test System: AMES SALMONELLA TYPHIMURIUM, Strain/Indicator: TA98, Metabolic Activation: MOUSE, LIVER, S-9, PCB, Method: PREINCUBATION): inactive; negative
mutagenic call (Test System: AMES SALMONELLA TYPHIMURIUM, Strain/Indicator: TA98, Metabolic Activation: NONE, Method: PREINCUBATION): inactive; negative
mutagenic call (Test System: AMES SALMONELLA TYPHIMURIUM, Strain/Indicator: TA98, Metabolic Activation: NONE, Method: STANDARD PLATE): inactive; negative
mutagenic call (Test System: AMES SALMONELLA TYPHIMURIUM, Strain/Indicator: TA98, Metabolic Activation: RAT, LIVER, S-9, AROCLOR 1254 (10%), Method: PREINCUBATION): inactive; negative
mutagenic call (Test System: AMES SALMONELLA TYPHIMURIUM, Strain/Indicator: TA98, Metabolic Activation: RAT, LIVER, S-9, AROCLOR 1254 (30%), Method: PREINCUBATION): inactive; negative
mutagenic call (Test System: AMES SALMONELLA TYPHIMURIUM, Strain/Indicator: TA98, Metabolic Activation: RAT, LIVER, S-9, AROCLOR 1254, Method: STANDARD PLATE): inactive; negative
mutagenic call (Test System: AMES SALMONELLA TYPHIMURIUM, Strain/Indicator: TA98, Metabolic Activation: RAT, LIVER, S-9, PCB, Method: PREINCUBATION): inactive; negative
mutagenic call (Test System: AMES SALMONELLA TYPHIMURIUM, Strain/Indicator: TA98, Metabolic Activation: RAT, LIVER, S-9, PCB, Method: STANDARD PLATE): inactive; negative
mutagenic call (Test System: AMES SALMONELLA TYPHIMURIUM, Strain/Indicator: TA100, Metabolic Activation: GUINEA PIG, LIVER, S-9, PCB, Method: PREINCUBATION): inactive; negative
mutagenic call (Test System: AMES SALMONELLA TYPHIMURIUM, Strain/Indicator: TA100, Metabolic Activation: HAMSTER, LIVER, S-9, AROCLOR 1254 (10%), Method: PREINCUBATION): inactive; negative
mutagenic call (Test System: AMES SALMONELLA TYPHIMURIUM, Strain/Indicator: TA100, Metabolic Activation: HAMSTER, LIVER, S-9, AROCLOR 1254 (30%), Method: PREINCUBATION): inactive; negative
mutagenic call (Test System: AMES SALMONELLA TYPHIMURIUM, Strain/Indicator: TA100, Metabolic Activation: HAMSTER, LIVER, S-9, AROCLOR 1254, Method: STANDARD PLATE): inactive; negative
mutagenic call (Test System: AMES SALMONELLA TYPHIMURIUM, Strain/Indicator: TA100, Metabolic Activation: HAMSTER, LIVER, S-9, PCB, Method: PREINCUBATION): inactive; negative
mutagenic call (Test System: AMES SALMONELLA TYPHIMURIUM, Strain/Indicator: TA100, Metabolic Activation: MOUSE, LIVER, S-9, AROCLOR 1254, Method: STANDARD PLATE): inactive; negative
mutagenic call (Test System: AMES SALMONELLA TYPHIMURIUM, Strain/Indicator: TA100, Metabolic Activation: MOUSE, LIVER, S-9, PCB, Method: PREINCUBATION): inactive; negative
mutagenic call (Test System: AMES SALMONELLA TYPHIMURIUM, Strain/Indicator: TA100, Metabolic Activation: NONE, Method: PREINCUBATION): inactive; negative
mutagenic call (Test System: AMES SALMONELLA TYPHIMURIUM, Strain/Indicator: TA100, Metabolic Activation: NONE, Method: STANDARD PLATE): inactive; negative
mutagenic call (Test System: AMES SALMONELLA TYPHIMURIUM, Strain/Indicator: TA100, Metabolic Activation: RAT, LIVER, S-9, AROCLOR 1254 (10%), Method: PREINCUBATION): inactive; negative
mutagenic call (Test System: AMES SALMONELLA TYPHIMURIUM, Strain/Indicator: TA100, Metabolic Activation: RAT, LIVER, S-9, AROCLOR 1254 (30%), Method: PREINCUBATION): inactive; negative
mutagenic call (Test System: AMES SALMONELLA TYPHIMURIUM, Strain/Indicator: TA100, Metabolic Activation: RAT, LIVER, S-9, AROCLOR 1254, Method: STANDARD PLATE): inactive; negative
mutagenic call (Test System: AMES SALMONELLA TYPHIMURIUM, Strain/Indicator: TA100, Metabolic Activation: RAT, LIVER, S-9, PCB, Method: PREINCUBATION): inactive; negative
mutagenic call (Test System: AMES SALMONELLA TYPHIMURIUM, Strain/Indicator: TA100, Metabolic Activation: RAT, LIVER, S-9, PCB, Method: STANDARD PLATE): inactive; negative
mutagenic call (Test System: AMES SALMONELLA TYPHIMURIUM, Strain/Indicator: TA1535, Metabolic Activation: HAMSTER, LIVER, S-9, AROCLOR 1254 (10%), Method: PREINCUBATION): inactive; negative
mutagenic call (Test System: AMES SALMONELLA TYPHIMURIUM, Strain/Indicator: TA1535, Metabolic Activation: HAMSTER, LIVER, S-9, AROCLOR 1254 (30%), Method: PREINCUBATION): inactive; negative
mutagenic call (Test System: AMES SALMONELLA TYPHIMURIUM, Strain/Indicator: TA1535, Metabolic Activation: HAMSTER, LIVER, S-9, AROCLOR 1254, Method: STANDARD PLATE): inactive; negative
mutagenic call (Test System: AMES SALMONELLA TYPHIMURIUM, Strain/Indicator: TA1535, Metabolic Activation: MOUSE, LIVER, S-9, AROCLOR 1254, Method: STANDARD PLATE): inactive; negative
mutagenic call (Test System: AMES SALMONELLA TYPHIMURIUM, Strain/Indicator: TA1535, Metabolic Activation: NONE, Method: PREINCUBATION): inactive; negative
mutagenic call (Test System: AMES SALMONELLA TYPHIMURIUM, Strain/Indicator: TA1535, Metabolic Activation: NONE, Method: STANDARD PLATE): inactive; negative
mutagenic call (Test System: AMES SALMONELLA TYPHIMURIUM, Strain/Indicator: TA1535, Metabolic Activation: RAT, LIVER, S-9, AROCLOR 1254 (10%), Method: PREINCUBATION): inactive; negative
mutagenic call (Test System: AMES SALMONELLA TYPHIMURIUM, Strain/Indicator: TA1535, Metabolic Activation: RAT, LIVER, S-9, AROCLOR 1254 (30%), Method: PREINCUBATION): inactive; negative
mutagenic call (Test System: AMES SALMONELLA TYPHIMURIUM, Strain/Indicator: TA1535, Metabolic Activation: RAT, LIVER, S-9, AROCLOR 1254, Method: STANDARD PLATE): inactive; negative
mutagenic call (Test System: AMES SALMONELLA TYPHIMURIUM, Strain/Indicator: TA1537, Metabolic Activation: HAMSTER, LIVER, S-9, AROCLOR 1254, Method: STANDARD PLATE): inactive; negative
mutagenic call (Test System: AMES SALMONELLA TYPHIMURIUM, Strain/Indicator: TA1537, Metabolic Activation: MOUSE, LIVER, S-9, AROCLOR 1254, Method: STANDARD PLATE): inactive; negative
mutagenic call (Test System: AMES SALMONELLA TYPHIMURIUM, Strain/Indicator: TA1537, Metabolic Activation: NONE, Method: STANDARD PLATE): inactive; negative
mutagenic call (Test System: AMES SALMONELLA TYPHIMURIUM, Strain/Indicator: TA1537, Metabolic Activation: RAT, LIVER, S-9, AROCLOR 1254, Method: STANDARD PLATE): inactive; negative
mutagenic call (Test System: AMES SALMONELLA TYPHIMURIUM, Strain/Indicator: TA1537, Metabolic Activation: RAT, LIVER, S-9, PCB, Method: STANDARD PLATE): inactive; negative
mutagenic call (Test System: AMES SALMONELLA TYPHIMURIUM, Strain/Indicator: TA1538, Metabolic Activation: HAMSTER, LIVER, S-9, AROCLOR 1254, Method: STANDARD PLATE): inactive; negative
mutagenic call (Test System: AMES SALMONELLA TYPHIMURIUM, Strain/Indicator: TA1538, Metabolic Activation: MOUSE, LIVER, S-9, AROCLOR 1254, Method: STANDARD PLATE): inactive; negative
mutagenic call (Test System: AMES SALMONELLA TYPHIMURIUM, Strain/Indicator: TA1538, Metabolic Activation: NONE, Method: STANDARD PLATE): inactive; negative
mutagenic call (Test System: AMES SALMONELLA TYPHIMURIUM, Strain/Indicator: TA1538, Metabolic Activation: RAT, LIVER, S-9, AROCLOR 1254, Method: STANDARD PLATE): inactive; negative
mutagenic call (Test System: AMES SALMONELLA TYPHIMURIUM, Strain/Indicator: TA1538, Metabolic Activation: RAT, LIVER, S-9, PCB, Method: STANDARD PLATE): inactive; negative
mutagenic call (Test System: E. COLI, Strain/Indicator: WP2 UVRA, Metabolic Activation: HAMSTER, LIVER, S-9, AROCLOR 1254, Method: STANDARD PLATE): inactive; negative
mutagenic call (Test System: E. COLI, Strain/Indicator: WP2 UVRA, Metabolic Activation: HAMSTER, LIVER, S-9, Method: STANDARD PLATE): inactive; negative
mutagenic call (Test System: E. COLI, Strain/Indicator: WP2 UVRA, Metabolic Activation: MOUSE, LIVER, S-9, AROCLOR 1254, Method: STANDARD PLATE): inactive; negative
mutagenic call (Test System: E. COLI, Strain/Indicator: WP2 UVRA, Metabolic Activation: MOUSE, LIVER, S-9, Method: STANDARD PLATE): inactive; negative
mutagenic call (Test System: E. COLI, Strain/Indicator: WP2 UVRA, Metabolic Activation: NONE, Method: STANDARD PLATE): inactive; negative
mutagenic call (Test System: E. COLI, Strain/Indicator: WP2 UVRA, Metabolic Activation: RAT, LIVER, S-9, AROCLOR 1254, Method: STANDARD PLATE): inactive; negative
mutagenic call (Test System: E. COLI, Strain/Indicator: WP2 UVRA, Metabolic Activation: RAT, LIVER, S-9, PCB, Method: STANDARD PLATE): inactive; negative
mutagenic call (Test System: E. COLI, Strain/Indicator: WP2 UVRA, Metabolic Activation: RAT, LIVER, S-9, Method: STANDARD PLATE): inactive; negative
